One data set addresses CYP3A4 (Homo sapiens (Human), UniProt P08684). Put plainly: Cytochrome P450 inhibition assay, substrate cocktail in human liver microsome. The format is in vitro ADME. Conditions: microsomes. How it is done:
(§1) Cytochrome P450 inhibition of a drug is a key factor in determining pharmacokinetic drug-drug interactions. The objective of this study is to evaluate the inhibition potential of VNN1 inhibitors on six (6) major human cytochrome P450 enzymes, including CYP1A2, CYP2C8, CYP2C9, CYP2C19, CYP2D6, and CYP3A4. Inhibition was determined by using a substrate cocktail and analyzing the rate of specific metabolites formation. The cytochrome P450 inhibition assay was developed using a cocktail consisting of six (6) probe substrates ethoxy-resorufin (CYP1A2), rosiglitazone (CYP2C8), diclofenac (CYP2C9), S-mephenytoin (CYP2C19), dextromethorphan (CYP2D6), and midazolam (CYP3A4). The cocktail was incubated in human liver microsome with NADPH regenerating system (NRS) in a shaking bath at 37±2° C. The formation of specific metabolites was monitored by LC/MS/MS. Test compound was added to the cocktail-liver microsome mixture at varying concentrations and its effect on cytochrome P450 activity was determined by analyzing the rate of specific metabolite formation. The percent inhibition was calculated and plotted with reference to the concentration, and the IC50 value for inhibition was derived by fitting the data with a standard sigmoidal dose-response equation via MLA “Quest Graph™ ED50 Calculator.” AAT Bioquest, Inc, 17 Sep. 2020, aatbio.com/tools/ed50-calculator. […]. […].
(§2) Inhibition by Cytochrome P450 is determined using a substrate cocktail and analyzing the rate of specific metabolites formation outlined in Example 21. The following structures were tested: Compound 5, Compound 9, Compound 10, Compound 13, Compound 14, Compound 16, Compound 20, Compound 21, Compound 23, Compound 24, and Compound 25.

For the next data set, the target named is CYP2D6 (Homo sapiens (Human), UniProt P10635). The description is as above. The format is in vitro ADME. Conditions: microsomes. How it is done: as §1, §2
CYP2D6, sequence (P10635 whole entry): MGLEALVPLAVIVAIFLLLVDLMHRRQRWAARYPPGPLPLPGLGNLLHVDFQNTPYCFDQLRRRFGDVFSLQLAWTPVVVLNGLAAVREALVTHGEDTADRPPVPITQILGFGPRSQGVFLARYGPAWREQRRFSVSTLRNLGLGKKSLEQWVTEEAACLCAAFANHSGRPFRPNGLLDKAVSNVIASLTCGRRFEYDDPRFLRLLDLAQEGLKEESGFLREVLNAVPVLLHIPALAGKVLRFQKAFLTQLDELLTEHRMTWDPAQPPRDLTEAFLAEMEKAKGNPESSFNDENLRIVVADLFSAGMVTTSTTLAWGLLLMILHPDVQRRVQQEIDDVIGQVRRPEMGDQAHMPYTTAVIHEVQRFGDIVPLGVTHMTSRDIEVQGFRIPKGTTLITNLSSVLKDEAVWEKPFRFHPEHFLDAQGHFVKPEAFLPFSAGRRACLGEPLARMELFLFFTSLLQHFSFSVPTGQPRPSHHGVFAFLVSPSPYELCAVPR
In a further data set the target is CYP1A2 (Homo sapiens (Human), UniProt P05177). The data set is described as above. As to conditions: microsomes. The class given is in vitro ADME. How it is done: as §1, §2
CYP1A2, sequence (P05177 whole entry): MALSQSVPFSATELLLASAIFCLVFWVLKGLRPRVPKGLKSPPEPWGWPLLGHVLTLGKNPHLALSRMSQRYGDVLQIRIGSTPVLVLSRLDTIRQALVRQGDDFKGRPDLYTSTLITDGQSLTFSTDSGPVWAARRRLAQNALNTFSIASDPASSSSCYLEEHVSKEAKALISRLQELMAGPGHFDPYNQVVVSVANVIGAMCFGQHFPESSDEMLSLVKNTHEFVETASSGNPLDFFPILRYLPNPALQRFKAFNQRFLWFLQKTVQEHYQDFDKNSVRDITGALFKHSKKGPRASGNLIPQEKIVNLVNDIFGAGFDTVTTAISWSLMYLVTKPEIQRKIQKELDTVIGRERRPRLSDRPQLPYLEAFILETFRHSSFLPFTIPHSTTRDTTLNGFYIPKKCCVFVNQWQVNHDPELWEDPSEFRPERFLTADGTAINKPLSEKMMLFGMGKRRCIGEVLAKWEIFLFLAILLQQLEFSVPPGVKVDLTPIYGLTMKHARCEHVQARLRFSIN
Another data set concerns the target CYP2C9 (Homo sapiens (Human), UniProt P11712). The data set is described as above. The class given is in vitro ADME. As to conditions: microsomes. How it is done: as §1, §2
Another data set deals with CYP2C8 (Homo sapiens (Human), UniProt P10632). The data set is described as above. The format is in vitro ADME. Conditions: microsomes. The method, then:
as §1, §2

The next data set addresses CYP2C19 (Homo sapiens (Human), UniProt P33261). The description is as above. The class given is in vitro ADME. Conditions: CYP isozyme 2C19, human liver microsome. The method, then:
as §1, §2
A general note: Liver microsomes are vesicles of endoplasmic reticulum, rich in cytochrome P450 enzymes.

A further data set deals with Vanin-1 (Homo sapiens (Human), UniProt O95497). Put plainly: VNN1 inhibitor binding assay (Kd, affinity beads, qPCR readout). As to conditions: read-out: Vanin Affinity (nM), Vanin-1 Binding constants. The method, then:
(§3) Test compounds were prepared as 111X stocks in 100% DMSO. Kd values were determined using an 11-point 3-fold compound dilution series with three DMSO control points. […] The compounds were then diluted directly into the assays such that the final concentration of DMSO was 0.9%. All reactions were performed in polypropylene 384-well plate. Each was a final volume of 0.02 ml. […] The beads were then re-suspended in elution buffer (1×PBS, 0.05% Tween 20, 0.5 μM non-biotinylated affinity ligand) and incubated at room temperature with shaking for 30 minutes. The kinase concentration in the eluates was measured by qPCR.
Binding constants were calculated with a standard dose-response curve using the Hill equation:
The Hill Slope was set to −1. Curves were fitted using a non-linear least square fit with the Levenberg-Marquardt algorithm. The binding data is summarized in Table 1 where A is less than 100 nM, B is 100 to 500 nM, and C is greater than 500 nM.
as §3, with “are” for “were”, “is” for “was”, “reactions” for “reactions were”
Binding constants are calculated with a standard dose-response curve using the Hill equation:
The Hill Slope was set to −1. Curves were fitted using a non-linear least square fit with the Levenberg-Marquardt algorithm. The binding data is summarized in Table 4 where A is less than 100 nM, B is 100 to 500 nM, and C is greater than 500 nM.

The nature of data set [1]: parallel artificial membrane permeation assay (PAMPA). As to conditions: 20 μM in PBS/MeOH 90:10, 5 hours at room temperature. In general terms: PAMPA measures passive passage across an artificial lipid membrane.
Experimental: (§4) The permeability of compounds was evaluated with the parallel artificial membrane permeation assay (PAMPA) as an in vivo model of passive diffusion across a porous filter coated with a lipid/oil/lipid tri-layer artificial membrane. […] Donor solutions of test compound (300 μL, 20 μM in PBS/MeOH 90:10) were added to each well of the donor plate. 200 μL of PBS/MeOH 90:10 was added to each well of the acceptor plate. The acceptor plate was coupled with the donor plate and incubated for 5 hours at room temperature (RT) without agitation. In each plate, test compound was tested in triplicate. At the end of the incubation, test compound concentration in the initial donor solution, acceptor and the donor wells were determined using LC/MS/MS. Permeability of test compound was calculated based on the formula described in “Analytical Method”.
Another data set relates to TNF-alpha (TNFA). Put plainly: Cellular assay, TNF-alpha ELISA in LPS-treated THP-1 cells. The class given is cell-based. Conditions: 1 μM, THP-1 human monocytes, LPS 50 ng/ml, p<0.05. The method, then: THP-1 cells were grown to confluence and plated in 6-well plates. PMA (25 nM) was added to the medium and replaced with non-PMA containing medium 24 hrs later. ATH compounds (1 μM) or vehicle (0.1% DMSO) were added and allowed to incubate. After 4 hrs LPS (50 ng/ml) was added without replacement of the medium and supernatants were collected after 4 and 24 hrs. Media were placed on ice for cytokine detection using ELISA (Quantikine, R&D Systems).
VNN1 inhibitors Compound 1 and Compound 2 show suppression of TNF-alpha (TNFA) expression after LPS (lipopolysaccharide) treatment, in THP-1 human monocytes (FIG. 3, p<0.05 for both).

In data set [2] the test system is TNF-alpha (TNFA), interleukin 6 (IL6), interleukin 1beta (IL1B), MCP1 and interleukin 8 (IL8). Put plainly: Immune cellular assay, cytokine ELISA multiplex in LPS-treated THP-1 derived macrophages. The format is cell-based, human. Conditions: 1 μM, THP-1 macrophages, 100 ng/mL LPS for 4 or 24 hours. How it is done: The anti-inflammatory properties of the four VNN1 inhibitors (Compound 1, Compound 2, Compound 3, and Compound 80) were evaluated in an immune cellular assay targeting key pro-inflammatory cytokines involved in the pathogenesis of multiple autoimmune disease.
Specifically, THP-1 human monocytes were grown in 6-well plates (RPMI 1640+10% FBS+1% P/S). After washing with PBS the THP-1 cells were differentiated into macrophages using 20 nM of phorbol 12-myristate 13-acetate (PMA) for 24 hrs. Compound 1, Compound 2, Compound 3, and Compound 80 (1 μM) were added into the macrophages, which are incubated for 4 hours before the addition of 100 ng/mL lipopolysaccharide (LPS) for either 4 or 24 hours. Next, the macrophages are collected via centrifugation at 1.2K rpm for 5 min and use their media to evaluate cytokine protein levels by using the Bio-rad Cytokine ELISA multiplex assay (cat. No M5000031YV). The supernatants from macrophages treated only with only LPS+PMA are collected and use as negative controls.
The anti-inflammatory properties of the VNN1 inhibitors Compound 5, Compound 9, Compound 10, Compound 13, Compound 14, Compound 16, Compound 20, Compound 21, Compound 26, Compound 23, and Compound 24 are evaluated using the immune cellular assay outlined in Example 6. Suppression of TNF-alpha (TNFA), interleukin 6 (IL6), interleukin 1beta (IL1B), MCP1 and interleukin 8 (IL8) is determined.
Background: ELISA stands for enzyme-linked immunosorbent assay.

The conditions of data set [3]: for Permeability, Pe: PAMPA, 5 h, 20 μM.
Experimental: as §4
The conditions of data set [4]: positive controls, published class; cited from earlier work.
The nature of the next data set: in vitro. As to conditions: PAMPA.

The source of these data is US20250042850A1, “PHARMACEUTICAL COMPOUNDS AND METHODS OF MAKING AND USING THE SAME” (Athos Therapeutics, Inc., priority 2021, published 2025).

Usually IC50 stands for the concentration that inhibits the measured activity by half. As a reminder, the Papp is a coefficient for how fast a substance crosses the barrier.

Molecules are shown by their SMILES. “Also recorded” adds a separate entry of the source. Where two headings read alike, the source gives them in different places.

Vanin-1, sequence (O95497 22-513): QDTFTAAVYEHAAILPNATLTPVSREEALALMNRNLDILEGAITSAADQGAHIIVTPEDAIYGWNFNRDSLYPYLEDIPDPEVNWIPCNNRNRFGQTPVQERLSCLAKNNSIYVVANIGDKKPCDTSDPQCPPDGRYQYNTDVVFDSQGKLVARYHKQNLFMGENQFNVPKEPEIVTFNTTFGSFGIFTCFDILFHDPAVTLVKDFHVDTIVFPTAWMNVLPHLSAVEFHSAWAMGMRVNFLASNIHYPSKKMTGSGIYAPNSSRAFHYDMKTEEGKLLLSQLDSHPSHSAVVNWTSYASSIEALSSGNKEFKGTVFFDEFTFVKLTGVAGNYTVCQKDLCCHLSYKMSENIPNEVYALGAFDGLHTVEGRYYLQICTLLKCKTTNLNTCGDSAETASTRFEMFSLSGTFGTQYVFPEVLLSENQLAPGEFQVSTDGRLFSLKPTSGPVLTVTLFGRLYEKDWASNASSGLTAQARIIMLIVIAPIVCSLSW
CYP3A4, sequence (P08684 whole entry): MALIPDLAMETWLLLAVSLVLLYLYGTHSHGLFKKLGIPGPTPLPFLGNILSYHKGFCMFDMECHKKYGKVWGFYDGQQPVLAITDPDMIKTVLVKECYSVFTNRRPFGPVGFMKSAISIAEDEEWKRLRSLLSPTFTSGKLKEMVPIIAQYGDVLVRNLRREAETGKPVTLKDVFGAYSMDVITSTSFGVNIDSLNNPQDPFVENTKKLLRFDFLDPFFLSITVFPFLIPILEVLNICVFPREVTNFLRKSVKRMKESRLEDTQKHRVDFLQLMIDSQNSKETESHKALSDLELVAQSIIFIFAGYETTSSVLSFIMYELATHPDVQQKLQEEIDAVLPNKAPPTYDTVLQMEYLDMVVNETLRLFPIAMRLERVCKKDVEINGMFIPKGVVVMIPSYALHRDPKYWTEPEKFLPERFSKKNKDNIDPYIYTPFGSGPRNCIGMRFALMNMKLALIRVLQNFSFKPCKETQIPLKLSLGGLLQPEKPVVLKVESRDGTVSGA
CYP2C19, sequence (P33261 whole entry): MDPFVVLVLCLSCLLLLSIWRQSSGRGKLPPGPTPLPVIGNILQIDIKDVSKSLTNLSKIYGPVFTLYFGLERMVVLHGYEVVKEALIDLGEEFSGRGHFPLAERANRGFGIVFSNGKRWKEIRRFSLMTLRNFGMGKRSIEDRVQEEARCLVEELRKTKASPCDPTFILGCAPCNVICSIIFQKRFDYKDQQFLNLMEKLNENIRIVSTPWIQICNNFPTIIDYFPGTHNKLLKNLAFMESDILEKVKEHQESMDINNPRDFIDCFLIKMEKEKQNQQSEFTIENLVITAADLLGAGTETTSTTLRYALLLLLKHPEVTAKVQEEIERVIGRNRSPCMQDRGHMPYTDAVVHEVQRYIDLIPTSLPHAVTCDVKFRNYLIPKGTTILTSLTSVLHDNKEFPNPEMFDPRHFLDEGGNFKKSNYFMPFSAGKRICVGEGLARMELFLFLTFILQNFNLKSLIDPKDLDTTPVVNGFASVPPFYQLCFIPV
CYP2C8, sequence (P10632 whole entry): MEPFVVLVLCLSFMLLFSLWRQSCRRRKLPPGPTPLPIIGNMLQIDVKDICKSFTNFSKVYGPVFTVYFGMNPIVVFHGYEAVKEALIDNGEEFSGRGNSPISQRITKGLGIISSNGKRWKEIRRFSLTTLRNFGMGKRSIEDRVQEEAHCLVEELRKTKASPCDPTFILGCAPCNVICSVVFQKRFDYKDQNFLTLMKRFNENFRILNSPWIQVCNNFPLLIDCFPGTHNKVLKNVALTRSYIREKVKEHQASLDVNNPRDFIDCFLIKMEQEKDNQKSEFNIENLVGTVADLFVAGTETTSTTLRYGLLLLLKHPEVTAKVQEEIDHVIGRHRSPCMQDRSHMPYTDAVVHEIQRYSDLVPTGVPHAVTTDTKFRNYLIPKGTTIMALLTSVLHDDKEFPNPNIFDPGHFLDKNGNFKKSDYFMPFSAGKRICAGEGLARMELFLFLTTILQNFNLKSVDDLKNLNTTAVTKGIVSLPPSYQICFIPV
CYP2C9, sequence (P11712 whole entry): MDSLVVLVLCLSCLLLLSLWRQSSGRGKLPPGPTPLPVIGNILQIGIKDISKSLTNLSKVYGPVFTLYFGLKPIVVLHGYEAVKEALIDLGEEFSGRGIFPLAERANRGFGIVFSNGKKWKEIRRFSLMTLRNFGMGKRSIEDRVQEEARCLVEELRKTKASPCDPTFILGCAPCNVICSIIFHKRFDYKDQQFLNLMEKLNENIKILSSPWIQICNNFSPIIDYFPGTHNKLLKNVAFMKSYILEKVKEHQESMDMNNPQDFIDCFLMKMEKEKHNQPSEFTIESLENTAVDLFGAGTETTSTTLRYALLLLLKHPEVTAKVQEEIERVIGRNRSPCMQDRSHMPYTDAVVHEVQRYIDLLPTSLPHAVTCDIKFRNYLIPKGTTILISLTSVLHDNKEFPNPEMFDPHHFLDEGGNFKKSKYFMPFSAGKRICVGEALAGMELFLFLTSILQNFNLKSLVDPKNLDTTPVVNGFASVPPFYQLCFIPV
Experimental for in vitro: as §4

Take `O=C(Cc1ccccc1)c1ccn(C(=O)c2ccccc2F)c1` [Compound 1, 1-(1-(2-fluorobenzoyl)-1H-pyrrol-3-yl)-2-phenylethan-1-one]: the half-inhibitory concentration (IC50) against CYP3A4 is more than 100 µM; at CYP2D6, more than 100 µM; at CYP1A2 it was more than 100 µM; against CYP2C9 it was more than 100 µM; against CYP2C8, more than 100 µM; on CYP2C19 it was 50.6 µM. Also, the Kd on Vanin-1 was 100 to 500 nM. Besides, the “Permeability, Pe” value in [1] was determined as 236 nm/s. Besides, the “suppression of TNF-alpha (TNFA) expression after LPS treatment” value in the data set with TNF-alpha (TNFA) is on record as “suppression; also recorded: significantly inhibits”. In addition, in [2], the “activity against IL6, TNFA and MCP1” value is “highly potent activity”.
As for `O=C(Cc1ccccc1)c1ccn(Cc2c(F)cccc2F)c1` [Compound 2, 1-(1-(2,6-difluorobenzyl)-1H-pyrrol-3-yl)-2-phenylethan-1-one], the IC50 was 73.7 µM against CYP3A4; 27 µM against CYP2D6; more than 100 µM against CYP1A2; 63.4 µM against CYP2C9; 65.5 µM against CYP2C8; 15.3 µM against CYP2C19. Moreover, the “Permeability, Pe” value in data set [3] was found to be 136 nm/s. Further, the Kd on Vanin-1 was in the range of 100 to 500 nM. The “suppression of TNF-alpha (TNFA) expression after LPS treatment” value in the data set on TNF-alpha (TNFA) is “suppression; also recorded: significantly inhibits”. The “activity against IL6, TNFA and MCP1” value in [2] was “highly potent activity”.
For `O=C(c1ccn(Cc2c(F)cccc2F)c1)C(Cc1c(F)cccc1F)c1ccccc1` (stereo not shown) [Compound 3, 1-(1-(2,6-difluorobenzyl)-1H-pyrrol-3-yl)-3-(2,6-difluorophenyl)-2-phenylpropan-1-one], the Kd at Vanin-1 is more than 500 nM. In addition, in data set [2], the “activity against IL6, TNFA and MCP1” value is recorded as “highly potent activity”.
Take `Cn1c(C(=O)Cc2ccccc2)ccc1C(=O)c1ccccc1F` [Compound 22, 1-(5-(2-fluorobenzoyl)-1-methyl-1H-pyrrol-2-yl)-2-phenylethan-1-one]: the Kd at Vanin-1 is less than 100 nM.
The same measure, in the same setting: in the case of `Cn1c(C(=O)Cc2ccccc2)ccc1C(=O)c1ccccn1` [Compound 25, 1-(1-methyl-5-picolinoyl-1H-pyrrol-2-yl)-2-phenylethan-1-one] it was 100 to 500 nM; in that of `Cn1c(C(=O)c2ccccc2F)ccc1C(=O)N1CCC2(CCOCC2)C1` [Compound 33, (5-(2-fluorobenzoyl)-1-methyl-1H-pyrrol-2-yl) (8-oxa-2-azaspiro[4.5]decan-2-yl) methanone], less than 100 nM; in that of `Cn1c(C(=O)NC(C)(C)C)ccc1C(=O)c1ccccc1F` [Compound 43, N-(tert-butyl)-5-(2-fluorobenzoyl)-1-methyl-1H-pyrrole-2-carboxamide], less than 100 nM.
Take `Cn1cc(C(=O)Cc2ccccc2)cc1C(=O)c1ccccc1F` [Compound 46, 1-(5-(2-fluorobenzoyl)-1-methyl-1H-pyrrol-3-yl)-2-phenylethan-1-one]: the Kd on Vanin-1 was more than 500 nM.
The same measure, in the same setting: the same measure for `O=C(Cc1ccccc1)c1c[nH]c(C(=O)c2ccccc2F)c1` [Compound 47, 1-(5-(2-fluorobenzoyl)-1H-pyrrol-3-yl)-2-phenylethan-1-one]: more than 500 nM.
Turning to `Cn1cc(C(=O)c2ccccc2F)cc1C(=O)O` [Compound 76, 4-(2-fluorobenzoyl)-1-methyl-1H-pyrrole-2-carboxylic acid], the Kd at Vanin-1 was more than 500 nM.
In the case of `Cn1cc(C(=O)c2ccccc2F)cc1C(=O)N1CCC2(CCOCC2)C1` [Compound 77, (4-(2-fluorobenzoyl)-1-methyl-1H-pyrrol-2-yl) (8-oxa-2-azaspiro[4.5]decan-2-yl) methanone], the Kd at Vanin-1 was less than 100 nM.
For `CC(=O)N(C)[C@@H]1CCN(C(=O)c2cc(C(=O)c3ccccc3F)cn2C)C1` [Compound 78, (R)—N-(1-(4-(2-fluorobenzoyl)-1-methyl-1H-pyrrole-2-carbonyl)pyrrolidin-3-yl)-N-methylacetamide], the Kd on Vanin-1 is less than 100 nM.
For the compound `Cn1cccc1C(=O)Cc1ccccc1` [Compound 80, 1-(1-methyl-1H-pyrrol-2-yl)-2-phenylethan-1-one], in [2], the “activity against IL6, TNFA and MCP1” value was “highly potent activity”.
With `O=C(O)Cc1ccccc1Nc1c(Cl)cccc1Cl` [Diclofenac], the “Permeability, Pe” value in data set [3] turned out to be 109 nm/s. The published permeability entry in data set [4] is on record as “high”.
Regarding `CCN1CCCC1CNC(=O)c1cc(S(N)(=O)=O)ccc1OC` (stereo not shown) [Sulpiride], in data set [3], the “PAMPA permeability Classification” value was “Low/Medium”. Moreover, the published permeability entry in data set [4] is given as “low”. The compound further displayed an apparent permeability coefficient (Papp) at 5 h, 20 μM in the data set “in vitro” of 0.392 nm/s.
